Data on 46 compounds can be found in patent publication US20050222408A1, “Heterocyclic amides with anti-tuberculosis activity” (priority 2003, published 2005).

In brackets after ≈: the same amount, converted by molar mass.

The first experiment relates to M. tuberculosis H37Ra. Put plainly: MIC against M. tuberculosis H37Ra, micro broth dilution in microtiter plates. Particulars: M. tuberculosis H37Ra.
Regarding `O=C(NCc1cccc(N2CCC(Cc3ccccc3)CC2)c1)c1ccc([N+](=O)[O-])o1` [Compound 70, 5-Nitro-furan-2-carboxylic acid 3-(4-benzyl-piperidin-1-yl)-benzylamide], the “anti-tuberculosis MIC activity” value is “extremely potent”. Same read-out and setting: to `O=C(c1ccc([N+](=O)[O-])o1)N1CCC(Cc2ccccc2)CC1` [Compound 72] belongs “good activity”.

For `O=C(c1ccc([N+](=O)[O-])o1)N1CCN(Cc2ccccc2)CC1` [Compound 73], the “anti-tuberculosis MIC activity” value was “good activity”.

Take `COc1cc2c(cc1OC)CN(C(=O)c1ccc([N+](=O)[O-])o1)CC2` [Compound 75]: the “anti-tuberculosis MIC activity” value is given as “very potent”.

The experiment is the same for the next values; noted with them: Mycobacterium tuberculosis, H37RA, 168 h, read-out: TB MIC, Table 1; M. tuberculosis H37Ra, 7 days at 37° C., MIC90.
In the case of `O=C(Nc1cccc(OCc2ccccc2)c1)c1ccc([N+](=O)[O-])o1` [Compound 37, 5-Nitro-furan-2-carboxylic acid(3-benzyloxy-phenyl)-amide], the minimal inhibitory concentration (MIC) was 12.5 µg/mL (≈ 36.9 µM).

Staying with this experiment, now noted: Mycobacterium tuberculosis, H37RA, Table 6; M. tuberculosis H37Ra, MIC90.
As to `O=C(c1ccc([N+](=O)[O-])o1)N1CCN(c2ncccn2)CC1` [Compound 81, (5-Nitro-furan-2-yl)-(4-pyrimidin-2-yl-piperazin-1-yl)-methanone], the MIC is 0.1 µg/mL (≈ 0.33 µM).

`COc1ccc(CN2CCN(C(=O)c3ccc([N+](=O)[O-])o3)CC2)cc1` [Compound 85, [4-(4-Methoxy-benzyl)-piperazin-1-yl]-(5-nitro-furan-2-yl)-methanone] yielded a minimum inhibitory concentration (MIC) of 0.1 µg/mL (≈ 0.29 µM). Same read-out and setting: with `COc1cccc(CN2CCN(C(=O)c3ccc([N+](=O)[O-])o3)CC2)c1` [Compound 86, [4-(3-Methoxy-benzyl)-piperazin-1-yl]-(5-nitro-furan-2-yl)-methanone] the figure was 0.4 µg/mL (≈ 1.16 µM); with `O=C(c1ccc([N+](=O)[O-])o1)N1CCN(Cc2cccc(OCc3ccccc3)c2)CC1` [Compound 87, [4-(3-Benzyloxy-benzyl)-piperazin-1-yl]-(5-nitro-furan-2-yl)-methanone], 0.4 µg/mL (≈ 0.949 µM); with `CCN(CC)c1ccc(CN2CCN(C(=O)c3ccc([N+](=O)[O-])o3)CC2)cc1` [Compound 88, [4-(4-Diethylamino-benzyl)-piperazin-1-yl]-(5-nitro-furan-2-yl)-methanone], 0.4 µg/mL (≈ 1.04 µM). The same measure, in the same setting: to `COc1ccc(CN2CCN(C(=O)c3ccc([N+](=O)[O-])o3)CC2)c(OC)c1` [Compound 89, [4-(2,4-Dimethoxy-benzyl)-piperazin-1-yl]-(5-nitro-furan-2-yl)-methanone] belongs 0.2 µg/mL (≈ 0.533 µM).

Compound `O=C(c1ccc([N+](=O)[O-])o1)N1CCN(Cc2ccc(F)cc2)CC1` [Compound 90, [4-(4-Fluoro-benzyl)-piperazin-1-yl]-(5-nitro-furan-2-yl)-methanone] displayed a minimum inhibitory concentration (MIC) of 0.4 µg/mL (≈ 1.2 µM). Consider `CC(=O)c1ccc(N2CCN(C(=O)c3ccc([N+](=O)[O-])o3)CC2)cc1` [Compound 91, 1-{4-[4-(5-Nitro-furan-2-carbonyl)-piperazin-1-yl]-phenyl}-ethanone], for which inhibition of growth (MIC) required 0.0031 µg/mL (≈ 0.00903 µM). The compound `COc1ccc(N2CCN(C(=O)c3ccc([N+](=O)[O-])o3)CC2)cc1` [Compound 107, [4-(4-Methoxy-phenyl)-piperazin-1-yl]-(5-nitro-furan-2-yl)-methanone] yielded an MIC of 0.05 µg/mL (≈ 0.151 µM).

The compound `O=C(c1ccc(F)cc1)N1CCN(C(=O)c2ccc([N+](=O)[O-])o2)CC1` [Compound 109, [4-(4-Fluoro-benzoyl)-piperazin-1-yl]-(5-nitro-furan-2-yl)-methanone] had an MIC of 0.05 µg/mL (≈ 0.144 µM).

Compound `COc1ccc(C(=O)N2CCN(C(=O)c3ccc([N+](=O)[O-])o3)CC2)cc1` [Compound 110, [4-(4-Methoxy-benzoyl)-piperazin-1-yl]-(5-nitro-furan-2-yl)-methanone] had a minimal inhibitory concentration (MIC) of 0.05 µg/mL (≈ 0.139 µM). Same read-out and setting: with `CN1CCN(/N=C/c2ccc(CNC(=O)c3ccc([N+](=O)[O-])o3)cc2)CC1` [Compound 111, 5-Nitro-furan-2-carboxylic acid 4-[(4-methyl-piperazin-1-ylimino)-methyl]-benzylamide] the figure was 0.1 µg/mL (≈ 0.269 µM).

Staying with this experiment, now noted: Table 1; M. tuberculosis H37Ra, 7 days at 37° C., MIC90.
For `COc1ccc(NC(=O)c2ccc([N+](=O)[O-])o2)cc1Cl` [Compound 1], the “TB MIC” value turned out to be 1.6 µg/mL.

In the case of `O=C(Nc1cccc(Br)c1)c1ccc([N+](=O)[O-])o1` [Compound 11, 5-Nitro-furan-2-carboxylic acid(3-bromo-phenyl)-amide], the “TB MIC” value stood at 1.6 µg/mL. The same measure, in the same setting: with `COc1ccc(NC(=O)c2ccc([N+](=O)[O-])o2)cc1` [Compound 14, 5-Nitro-furan-2-carboxylic acid(4-methoxy-phenyl)-amide] the figure was 0.4 µg/mL. Same read-out and setting: with `O=C(NCc1ccco1)c1ccc([N+](=O)[O-])o1` [Compound 18, 5-Nitro-furan-2-carboxylic acid(furan-2-ylmethyl)-amide] the figure was 6.25 µg/mL; with `N#Cc1ccc(NC(=O)c2ccc([N+](=O)[O-])o2)cc1` [Compound 19, 5-Nitro-furan-2-carboxylic acid(4-cyano-phenyl)-amide], 0.8 µg/mL. The same measure, in the same setting: with `CN(C(=O)c1ccc([N+](=O)[O-])o1)c1ccccc1` [Compound 41] the figure was 3.12 µg/mL. Take `COc1ccc(N(C)C(=O)c2ccc([N+](=O)[O-])o2)cc1` [Compound 42]: the “TB MIC” value was 6.25 µg/mL. The same measure, in the same setting: with `O=C(c1ccc([N+](=O)[O-])o1)N1CCc2ccccc21` [Compound 43] the figure was 0.8 µg/mL; with `O=C(Nc1cccnc1)c1ccc([N+](=O)[O-])o1` [Compound 45], 6.25 µg/mL. The same measure, in the same setting: to `O=C(Nc1ccncc1)c1ccc([N+](=O)[O-])o1` [Compound 46] belongs 3.12 µg/mL. `O=C(NCc1ccccn1)c1ccc([N+](=O)[O-])o1` [Compound 49, 5-nitro-furan-2-carboxylic acid(pyridin-2-ylmethyl)-amide]: the “TB MIC” value stood at 0.8 µg/mL.

Take `COc1cccc2sc(NC(=O)c3ccc([N+](=O)[O-])o3)nc12` [Compound 50, 5-nitro-furan-2-carboxylic acid(4-methoxy-benzothiazol-2-yl)-amide]: the “TB MIC” value is 1.6 µg/mL. Turning to `COc1cc(NC(=O)c2ccc([N+](=O)[O-])o2)ncn1` [Compound 51, 5-nitro-furan-2-carboxylic acid(6-methoxy-pyrimin-4-yl)-amide], the “TB MIC” value was 1.6 µg/mL.

The same experiment, now with this note: Table 5; M. tuberculosis H37Ra, MIC90.
In turn, `O=C(NCc1ccc(N2CC[S+]([O-])CC2)cc1)c1ccc([N+](=O)[O-])o1` [Compound 93, 5-Nitro-furan-2-carboxylic acid 4-(1-oxo-¼-thiomorpholin-4-yl)-benzylamide] showed an MIC of 0.8 µg/mL (≈ 2.2 µM). Same read-out and setting: to `O=C(NCc1ccc(N2CCS(=O)(=O)CC2)cc1)c1ccc([N+](=O)[O-])o1` [Compound 94, 5-Nitro-furan-2-carboxylic acid 4-(1,1-dioxo-⅙-thiomorpholin-4-yl)-benzylamide] belongs 6.25 µg/mL (≈ 16.5 µM).

Staying with this experiment, now noted: Table 6; M. tuberculosis H37Ra, MIC90.
In turn, `O=C(c1ccc([N+](=O)[O-])o1)N1CCN(c2ccc(F)cc2)CC1` [Compound 108, [4-(4-Fluoro-phenyl)-piperazin-1-yl]-(^5-nitro-furan-2-yl)-methanone] yielded a minimal inhibitory concentration (MIC) of 0.025 µg/mL (≈ 0.0783 µM).

Staying with this experiment, now noted: quoted.
`CN(C(=O)c1ccc([N+](=O)[O-])o1)c1ccccc1` [Compound 41] came in with an MIC of 3.1 µg/mL (≈ 12.6 µM).

The test system of the next experiment is Vero cells. Put plainly: Cytotoxicity, alamar blue assay against Vero cells. It counts as cell-based. Particulars: Chlorocebus sabaeus, Vero, read-out: ToxIC50. For orientation: The colour change of resazurin is a common sign of viable cells or microbes.
For the compound `O=C(NCCc1ccccc1)c1ccc([N+](=O)[O-])o1` [Compound 27, 5-Nitro-furan-2-carboxylic acid phenethyl-amide], the IC50 came to 25.2 µg/mL (≈ 96.9 µM).

The same experiment, now with this note: Chlorocebus sabaeus; Table 1; Vero cells, alamar blue; unit inferred; read-out: ToxIC50.
For the compound `O=C(NC1CCCCC1)c1ccc([N+](=O)[O-])o1` [Compound 15, 5-Nitro-furan-2-carboxylic acid cyclohexylamide], the IC50 worked out at 9.08 µg/mL (≈ 38.1 µM). On the same count and under the same terms, to `O=C(NC12CC3CC(CC(C3)C1)C2)c1ccc([N+](=O)[O-])o1` [Compound 16, 5-Nitro-furan-2-carboxylic acid adamantan-1-ylamide] belongs 9.43 µg/mL (≈ 32.5 µM); to `O=C(Nc1ccccc1)c1ccc([N+](=O)[O-])o1` [Compound 17, 5-Nitro-furan-2-carboxylic acid phenylamide], 2.19 µg/mL (≈ 9.43 µM); to `COc1ccc(CNC(=O)c2ccc([N+](=O)[O-])o2)cc1` [Compound 20, 5-Nitro-furan-2-carboxylic acid 4-methoxy-benzylamide], 16.4 µg/mL (≈ 59.2 µM). Regarding `O=C(NCc1ccccc1Cl)c1ccc([N+](=O)[O-])o1` [Compound 21, 5-Nitro-furan-2-carboxylic acid 2-chloro-benzylamide], the IC50 was 11.8 µg/mL (≈ 41.9 µM). Turning to `COc1cc(CNC(=O)c2ccc([N+](=O)[O-])o2)cc(OC)c1OC` [Compound 24, 5-Nitro-furan-2-carboxylic acid 3,4,5-trimethoxy-benzylamide], the IC50 is 23.6 µg/mL (≈ 70.1 µM). Same read-out and setting: to `O=C(NC1CCc2ccccc21)c1ccc([N+](=O)[O-])o1` (stereo not drawn) [Compound 26, 5-Nitro-furan-2-carboxylic acid indan-1-ylamide] belongs 10.3 µg/mL (≈ 37.8 µM). Regarding `COc1ccc(CNC(=O)c2ccc(Br)o2)cc1` [Compound 32, 5-Bromo-furan-2-carboxylic acid 4-methoxy-benzylamide], the IC50 worked out at 90.5 µg/mL (≈ 292 µM). Still for that read-out and setting: to `O=C(Nc1cccc(O)c1)c1ccc([N+](=O)[O-])o1` [Compound 35, 5-Nitro-furan-2-carboxylic acid(3-hydroxy-phenyl)-amide] belongs 12.5 µg/mL (≈ 50.4 µM); to `COc1cccc(NC(=O)c2ccc([S+]([O-])c3ccccc3)o2)c1` (stereo not drawn) [Compound 38, 5-Benzenesulfinyl-furan-2-carboxylic acid(3-methoxy-phenyl)-amide], 65 µg/mL (≈ 190 µM).

Consider `COc1cccc(NC(=O)c2ccc(S(=O)(=O)c3ccccc3)o2)c1` [Compound 39, 5-Benzenesulfonyl-furan-2-carboxylic acid(3-methoxy-phenyl)-amide], for which the IC50 was 25.9 µg/mL (≈ 72.3 µM).

Consider `CCOC(=O)c1ccc(C(=O)Nc2cccc(OC)c2)o1` [Compound 40, 5-(3-Methoxy-phenylcarbamoyl)-furan-2-carboxylic acid ethyl ester], for which the IC50 stood at 200 µg/mL (≈ 691 µM).

The same experiment, now with this note: Table 1; Vero cells, alamar blue; unit not given.
Compound `O=C(Nc1cccc(Br)c1)c1ccc([N+](=O)[O-])o1` [Compound 11, 5-Nitro-furan-2-carboxylic acid(3-bromo-phenyl)-amide] came in with a ToxIC50 of 15.37. Still for that read-out and setting: to `COc1ccc(NC(=O)c2ccc([N+](=O)[O-])o2)cc1` [Compound 14, 5-Nitro-furan-2-carboxylic acid(4-methoxy-phenyl)-amide] belongs 21.44; to `O=C(NCc1ccco1)c1ccc([N+](=O)[O-])o1` [Compound 18, 5-Nitro-furan-2-carboxylic acid(furan-2-ylmethyl)-amide], 4.08. Same read-out and setting: to `N#Cc1ccc(NC(=O)c2ccc([N+](=O)[O-])o2)cc1` [Compound 19, 5-Nitro-furan-2-carboxylic acid(4-cyano-phenyl)-amide] belongs 3.53.

The MIC is the least concentration at which growth counts as inhibited.
